Assay results reported in ChEMBL document CHEMBL2046309, “Semi-synthesis and bio-evaluation of polybrominated diphenyl ethers from the sponge Dysidea herbacea” (Bioorg Med Chem Lett, 2012).
Converted amounts (≈) assume the structure as drawn. The source made the active and inactive calls. The rule behind the calls is not given here.

Key:
U-937 = assay: Cytotoxicity against human U937 cells assessed as decrease in cell number after 24 hrs by MTT assay; format: functional, cell-based; conditions: U-937, 24 h
HL-60 = assay: Cytotoxicity against human HL60 cells assessed as decrease in cell number after 24 hrs by MTT assay; format: functional, cell-based; conditions: HL-60, 24 h
Artemia = assay: Toxicity in brine shrimps; format: organism-based; conditions: in vivo
Bacillus subtilis = assay: Antibacterial activity against Bacillus subtilis by paper disc assay method; format: functional, organism-based
Pseudomonas syringae = assay: Antibacterial activity against Pseudomonas syringae by paper disc assay method; format: functional, organism-based
Staphylococcus aureus = assay: Antibacterial activity against Staphylococcus aureus by paper disc assay method; format: functional, organism-based
Escherichia coli = assay: Antibacterial activity against Escherichia coli by paper disc assay method; format: functional, organism-based

Row | Compound | IC50 (U-937) [µg/mL] | IC50 (HL-60) [µg/mL] | other results
1 | CC(C)(C)C(=O)C(C#N)Oc1c(Br)cc(Br)cc1Oc1ccc(Br)cc1Br (stereo not drawn) | 32.5 (≈ 52 µM) | 29.2 (≈ 46.7 µM) | 
2 | BrCCCCOc1c(Br)cc(Br)cc1Oc1ccc(Br)cc1Br | 29 (≈ 45.5 µM) | 25.9 (≈ 40.7 µM) | 
3 | Brc1ccc(Oc2cc(Br)cc(Br)c2OCCCCCN2CCOCC2)c(Br)c1 | 39.8 (≈ 60.6 µM) | 50.5 (≈ 76.9 µM) | 
4 | COc1c(Br)cc(Br)cc1Oc1ccc(Br)cc1Br | 34.5 (≈ 66.9 µM) | 28.2 (≈ 54.7 µM) | LC50 (Artemia): 19.28 ppm; Activity (Bacillus subtilis): Active; Activity (Pseudomonas syringae): Active; Activity (Staphylococcus aureus): Active; Activity (Escherichia coli): Active
5 | Brc1ccc(Oc2cc(Br)cc(Br)c2OCc2ccccc2)c(Br)c1 | 29 (≈ 49 µM) | 27.9 (≈ 47.1 µM) | 
6 | CN1CCN(CCCCCOc2c(Br)cc(Br)cc2Oc2ccc(Br)cc2Br)CC1 | 49.1 (≈ 73.3 µM) | 48.3 (≈ 72.1 µM) | 
7 | CC(C)(C)OC(=O)N1CCCN(CCCCCOc2c(Br)cc(Br)cc2Oc2ccc(Br)cc2Br)CC1 | 39.5 (≈ 51.3 µM) | 44.8 (≈ 58.2 µM) | 
8 | Oc1c(Br)cc(Br)cc1Oc1ccc(Br)cc1Br | 22.5 (≈ 44.8 µM) | 19.3 (≈ 38.5 µM) | LC50 (Artemia): 12.8 ppm
9 | Brc1ccc(Oc2cc(Br)cc(Br)c2OCCCCCN2CCN(c3ccccc3)CC2)c(Br)c1 | 42.5 (≈ 58 µM) | 41.6 (≈ 56.8 µM) | 
10 | BrCCCCCCOc1c(Br)cc(Br)cc1Oc1ccc(Br)cc1Br | 33.8 (≈ 50.8 µM) | 37.8 (≈ 56.9 µM) | 
11 | OCCCOc1c(Br)cc(Br)cc1Oc1ccc(Br)cc1Br | 32.3 (≈ 57.7 µM) | 29.9 (≈ 53.4 µM) | 
12 | CC(C)(C)OC(=O)N1CCN(CCCCCOc2c(Br)cc(Br)cc2Oc2ccc(Br)cc2Br)CC1 | 35.5 (≈ 46.9 µM) | 32.1 (≈ 42.5 µM) | 
13 | Cc1ccc(S(=O)(=O)n2nc(N3CCN(CCCCCOc4c(Br)cc(Br)cc4Oc4ccc(Br)cc4Br)CC3)c3cc([N+](=O)[O-])ccc32)cc1 | 68.5 (≈ 70.5 µM) | 52.5 (≈ 54 µM) | 
14 | C#CCOc1c(Br)cc(Br)cc1Oc1ccc(Br)cc1Br | 29.5 (≈ 54.6 µM) | 29.7 (≈ 55 µM) | 
15 | Brc1ccc(Oc2cc(Br)cc(Br)c2OCCCCCN2CCN(C/C=C/c3ccccc3)CC2)c(Br)c1 | 32.7 (≈ 42.3 µM) | 47.2 (≈ 61.1 µM) | 
16 | BrCCCCCOc1c(Br)cc(Br)cc1Oc1ccc(Br)cc1Br | 29.5 (≈ 45.3 µM) | 25.7 (≈ 39.5 µM) | 
17 | BrCCCOc1c(Br)cc(Br)cc1Oc1ccc(Br)cc1Br | 30.3 (≈ 48.7 µM) | 29.9 (≈ 48 µM) | 
18 | COc1cc([C@@H]2c3cc4c(cc3[C@@H](O[C@@H]3O[C@@H]5CO[C@@H](C)O[C@H]5[C@H](O)[C@H]3O)[C@H]3COC(=O)[C@H]23)OCO4)cc(OC)c1O [ETOPOSIDE] |  | 1.1 (≈ 1.87 µM) | 
19 | OCCOc1c(Br)cc(Br)cc1Oc1ccc(Br)cc1Br | 34.5 (≈ 63.2 µM) | 28.2 (≈ 51.7 µM) | 
20 | CC(=O)Oc1c(Br)cc(Br)cc1Oc1ccc(Br)cc1Br | 32.3 (≈ 59.4 µM) | 29.9 (≈ 55 µM) | LC50 (Artemia): 23.28 ppm; Activity (Bacillus subtilis): Active; Activity (Pseudomonas syringae): Active; Activity (Staphylococcus aureus): Active; Activity (Escherichia coli): Active
21 | BrCCOc1c(Br)cc(Br)cc1Oc1ccc(Br)cc1Br | 32.5 (≈ 53.4 µM) | 26.2 (≈ 43 µM) | 
22 | CCOC(=O)C(C)Oc1c(Br)cc(Br)cc1Oc1ccc(Br)cc1Br (stereo not drawn) | 39.5 (≈ 65.6 µM) | 35.7 (≈ 59.3 µM) | 
23 | COc1ccccc1N1CCN(CCCCCOc2c(Br)cc(Br)cc2Oc2ccc(Br)cc2Br)CC1 | 37.5 (≈ 49.2 µM) | 32.2 (≈ 42.2 µM) | 
24 | C=CCOc1c(Br)cc(Br)cc1Oc1ccc(Br)cc1Br | 29 (≈ 53.5 µM) | 27.9 (≈ 51.5 µM) | 
